Test results from US6455540B1, “Methods of use of quinolone compounds against anaerobic pathogenic bacteria” (priority 1999, dated 2002).
Values after ≈ are worked out from the molar mass of the structure shown.

Assays:
Experiment in all cases: Agar dilution MIC
[1] = system: Actinomyces odontolyticus; type: cell-based; conditions: Schaalia odontolytica, 10 isolates
[2] = system: Actinomyces israelii; type: cell-based; conditions: 6 isolates
[3] = system: Anaerobiospirillum thomasii; type: cell-based; conditions: Anaerobiospirillum thomasii, 13 isolates
[4] = system: Anaerobiospirillum succiniciproducens; type: cell-based; conditions: 3 isolates
[5] = system: Bacteroides gracilis; type: cell-based, Bacteroides gracilis (Campylobacter gracilis); conditions: 11 isolates
[6] = system: Bacteroides tectum; type: cell-based; conditions: 22 isolates
[7] = system: Bacteroides ureolyticus; type: cell-based; conditions: 17 isolates
[8] = system: Bilophila wadsworthia; type: cell-based; conditions: 16 isolates, agar supplemented with pyruvate
[9] = system: Clostridium clostridioforme; type: cell-based; conditions: Clostridium, 11 isolates
[10] = system: Clostridium dfficile; type: cell-based, Clostridium difficile; conditions: Clostridium
[11] = system: Clostridium inocuum; type: cell-based, Clostridium innocuum; conditions: Clostridium, 11 isolates
[12] = system: Clostridium ramosum; type: cell-based; conditions: Thomasclavelia ramosa, 10 isolates
[13] = system: Fusobacterium spp group 1; type: cell-based; conditions: 19 isolates
[14] = system: Fusobacterium spp. group 2; type: cell-based, Fusobacterium mortiferum, necrogenes, ulcerans; conditions: Fusobacterium, 12 isolates
[15] = system: Fusobacterium russii; type: cell-based
[16] = system: Fusobacterium varium; type: cell-based; conditions: Fusobacterium varium, 17 isolates
[17] = system: Peptostreptococcus asaccharolyticus; type: cell-based; conditions: Peptoniphilus asaccharolyticus, 11 isolates
[18] = system: Peptostreptococcus magnus; type: cell-based; conditions: Finegoldia magna, 13 isolates
[19] = system: Peptostreptococcus micros; type: cell-based; conditions: 12 isolates
[20] = system: Peptostreptococcus prevotii; type: cell-based; conditions: Anaerococcus prevotii, read-out: Minimal Inhibitory Concentration 50% (MIC50); 9 isolates
[21] = system: Porphyromonas asaccharolyticus; type: cell-based, Porphyromonas asaccharolytica; conditions: Porphyromonas, 11 isolates
[22] = system: Porphyromonas canoris; type: cell-based; conditions: Porphyromonas canoris, 10 isolates
[23] = system: Porphyromonas gingivalis; type: cell-based; conditions: Porphyromonas gingivalis, 13 isolates
[24] = system: Porphyromonas macaccae; type: cell-based; conditions: Porphyromonas, 13 isolates
[25] = system: Porphyromonas spp.; type: cell-based, Porphyromonas cangingivalis, cansulci, circumdentaria, levii; conditions: Porphyromonas, 11 isolates
[26] = system: Prevotella bivia; type: cell-based; conditions: Prevotella bivia, 21 isolates
[27] = system: Prevotella buccae-oris group; type: cell-based; conditions: Prevotella, 22 isolates
[28] = system: Prevotella heparinolytica; type: cell-based; conditions: 16 isolates
[29] = system: Prevotella intermedia; type: cell-based; conditions: 11 isolates
[30] = system: Prevotella melaninogenica; type: cell-based; conditions: Prevotella melaninogenica, 12 isolates
[31] = system: Prevotella denticola/loeschii group; type: cell-based; conditions: 6 isolates
[32] = system: Veillonella spp.; type: cell-based; conditions: Veillonella, 24 isolates
[33] = read-out: Minimal Inhibitory Concentration 90% (MIC90)
[34] = read-out: Minimal Inhibitory Concentration 50% (MIC50)

For `CC[C@H]1OC(=O)[C@H](C)[C@@H](O[C@H]2C[C@@](C)(OC)[C@@H](O)[C@H](C)O2)[C@H](C)[C@@H](O[C@@H]2O[C@H](C)C[C@H](N(C)C)[C@H]2O)[C@](C)(O)C[C@@H](C)CN(C)[C@H](C)[C@@H](O)[C@]1(C)O` [Azithromycin], the MIC90 [1, 33] was 0.06 µg/mL (≈ 0.0801 µM), the MIC50 [1, 34] was 0.03 µg/mL (≈ 0.0401 µM) and the “Minimal Inhibitory Concentration Range” value [2] was 0.06 µg/mL. For the same molecule, the MIC50 ([2]; Actinomyces israelii, read-out: Minimal Inhibitory Concentration 50% (MIC50)) was 0.06 µg/mL (≈ 0.0801 µM), the MIC50 [3, 34] was 0.5 µg/mL (≈ 0.668 µM) and the MIC90 [3, 33] was 1 µg/mL (≈ 1.34 µM). The “Minimal Inhibitory Concentration Range” value [4] was 0.5 to 1 µg/mL, the MIC50 ([4]; Anaerobiospirillum succiniciproducens, read-out: Minimal Inhibitory Concentration 50% (MIC50)) was 0.5 µg/mL (≈ 0.668 µM) and the “Minimal Inhibitory Concentration Range” value [5] was 0.06 to 0.5 µg/mL. The MIC90 ([5]; Campylobacter gracilis, read-out: Minimal Inhibitory Concentration 90% (MIC90)) was 0.5 µg/mL (≈ 0.668 µM), the MIC50 ([5]; Campylobacter gracilis, read-out: Minimal Inhibitory Concentration 50% (MIC50)) was 0.125 µg/mL (≈ 0.167 µM) and the “Minimal Inhibitory Concentration Range” value [6] was 0.5 to 2 µg/mL. For the same molecule, the MIC90 ([6]; Bacteroides pyogenes, read-out: Minimal Inhibitory Concentration 90% (MIC90)) was 2 µg/mL (≈ 2.67 µM), the MIC50 ([6]; Bacteroides pyogenes, read-out: Minimal Inhibitory Concentration 50% (MIC50)) was 1 µg/mL (≈ 1.34 µM) and the “Minimal Inhibitory Concentration Range” value [7] was 0.06 to 0.25 µg/mL. For the same molecule, the MIC90 ([7]; Campylobacter ureolyticus, read-out: Minimal Inhibitory Concentration 90% (MIC90)) was 0.25 µg/mL (≈ 0.334 µM), the MIC50 ([7]; Campylobacter ureolyticus, read-out: Minimal Inhibitory Concentration 50% (MIC50)) was 0.06 µg/mL (≈ 0.0801 µM) and the “Minimal Inhibitory Concentration Range” value [8] was 1 to 16 µg/mL. For the same molecule, the MIC90 ([8]; Bilophila wadsworthia, read-out: Minimal Inhibitory Concentration 90% (MIC90)) was 16 µg/mL (≈ 21.4 µM), the MIC50 ([8]; Bilophila wadsworthia, read-out: Minimal Inhibitory Concentration 50% (MIC50)) was 4 µg/mL (≈ 5.34 µM) and the MIC90 [9, 33] was over 32 µg/mL. For the same molecule, the MIC50 [9, 34] was 16 µg/mL (≈ 21.4 µM), the MIC50 [10, 34] was 2 µg/mL (≈ 2.67 µM) and the MIC90 ([10]; read-out: Minimal Inhibitory Concentration 90% (MIC90), 14 isolates) was over 32 µg/mL. It also gave an MIC90 [11, 33] of over 32 µg/mL, an MIC50 [11, 34] of over 32 µg/mL and an MIC50 [12, 34] of 0.25 µg/mL (≈ 0.334 µM). For the same molecule, the MIC90 [12, 33] was over 32 µg/mL, the “Minimal Inhibitory Concentration Range” value [13] was 0.06 to 32 µg/mL and the MIC50 ([13]; Fusobacterium, GROUP1, read-out: Minimal Inhibitory Concentration 50% (MIC50)) was 1 µg/mL (≈ 1.34 µM). For the same molecule, the MIC90 ([13]; Fusobacterium, GROUP1, read-out: Minimal Inhibitory Concentration 90% (MIC90)) was 8 µg/mL (≈ 10.7 µM), the MIC50 [14, 34] was 16 µg/mL (≈ 21.4 µM) and the MIC90 [14, 33] was 32 µg/mL (≈ 42.7 µM). For the same molecule, the “Minimal Inhibitory Concentration Range” value [15] was 0.03 to 32 µg/mL, the MIC50 ([15]; Fusobacterium russii, read-out: Minimal Inhibitory Concentration 50% (MIC50)) was 0.25 µg/mL (≈ 0.334 µM) and the MIC90 ([15]; Fusobacterium russii, read-out: Minimal Inhibitory Concentration 90% (MIC90)) was 32 µg/mL (≈ 42.7 µM). For the same molecule, the MIC50 [16, 34] was 32 µg/mL (≈ 42.7 µM), the MIC90 [16, 33] was over 32 µg/mL and the MIC50 [17, 34] was 4 µg/mL (≈ 5.34 µM). It also gave an MIC90 [17, 33] of over 32 µg/mL, an MIC50 [18, 34] of 4 µg/mL (≈ 5.34 µM) and an MIC90 [18, 33] of over 32 µg/mL. The “Minimal Inhibitory Concentration Range” value [19] was 0.5 to 1 µg/mL, the MIC50 ([19]; Parvimonas micra, read-out: Minimal Inhibitory Concentration 50% (MIC50)) was 0.5 µg/mL (≈ 0.668 µM) and the MIC90 ([19]; Parvimonas micra, read-out: Minimal Inhibitory Concentration 90% (MIC90)) was 1 µg/mL (≈ 1.34 µM). It also gave an MIC50 [20] of 32 µg/mL (≈ 42.7 µM), an MIC50 [21, 34] of 0.25 µg/mL (≈ 0.334 µM) and an MIC90 [21, 33] of over 32 µg/mL. It also gave an MIC50 [22, 34] of 0.25 µg/mL (≈ 0.334 µM), an MIC90 [22, 33] of 0.25 µg/mL (≈ 0.334 µM) and an MIC50 [23, 34] of 0.25 µg/mL (≈ 0.334 µM). For the same molecule, the MIC90 [23, 33] was 0.5 µg/mL (≈ 0.668 µM), the MIC50 [24, 34] was 0.5 µg/mL (≈ 0.668 µM) and the MIC90 [24, 33] was 0.5 µg/mL (≈ 0.668 µM). The MIC50 [25, 34] was 0.25 µg/mL (≈ 0.334 µM), the MIC90 [25, 33] was 0.5 µg/mL (≈ 0.668 µM) and the MIC90 [26, 33] was 1 µg/mL (≈ 1.34 µM). The MIC50 [26, 34] was 0.5 µg/mL (≈ 0.668 µM), the MIC90 [27, 33] was 1 µg/mL (≈ 1.34 µM) and the MIC50 [27, 34] was 0.5 µg/mL (≈ 0.668 µM). For the same molecule, the “Minimal Inhibitory Concentration Range” value [28] was 0.5 to 1 µg/mL, the MIC90 ([28]; Prevotella heparinolytica, read-out: Minimal Inhibitory Concentration 90% (MIC90)) was 1 µg/mL (≈ 1.34 µM) and the MIC50 ([28]; Prevotella heparinolytica, read-out: Minimal Inhibitory Concentration 50% (MIC50)) was 0.5 µg/mL (≈ 0.668 µM). The “Minimal Inhibitory Concentration Range” value [29] was 0.03 to 1 µg/mL, the MIC90 ([29]; Prevotella intermedia, read-out: Minimal Inhibitory Concentration 90% (MIC90)) was 0.5 µg/mL (≈ 0.668 µM) and the MIC50 ([29]; Prevotella intermedia, read-out: Minimal Inhibitory Concentration 50% (MIC50)) was 0.125 µg/mL (≈ 0.167 µM). For the same molecule, the MIC90 [30, 33] was 32 µg/mL (≈ 42.7 µM), the MIC50 [30, 34] was 0.25 µg/mL (≈ 0.334 µM) and the “Minimal Inhibitory Concentration Range” value [31] was 0.06 to 16 µg/mL. For the same molecule, the MIC50 ([31]; Prevotella denticola, read-out: Minimal Inhibitory Concentration 50% (MIC50)) was 0.5 µg/mL (≈ 0.668 µM), the MIC90 [32, 33] was over 32 µg/mL and the MIC50 [32, 34] was 4 µg/mL (≈ 5.34 µM).
